# According to patent US12428378B2, “Methods and materials for increasing level of phosphorylated AMPK protein” (University of Pittsburgh—Of the Commonwealth System of …, priority 2019, dated 2025):
# Tested on: pAMPK
# Assay: pAMPK immunostaining chemiluminescence assay in Beas2B cells
# Format: cell-based
# Conditions: Homo sapiens, BEAS-2B, 18 h, DMEM no glucose media, compounds 3-34, 36-44, 47-60 tested as HCl salts, read-out: efficacy (minimal compound concentration needed to increase pAMPK by 30%)
# Protocol: Beas2B cells were plated in 384 white nunc plate (4000 cells per well) for overnight. Compounds were serially diluted in DMEM no glucose media using the liquid handler. Cells were washed once using Biotek EL406 before compound addition for additional 18 hours. Cells were washed and fixed with PFA before immunostained with pAMPK primary antibody and anti-Rabbit HRP secondary antibody. Finally, 25 μl of ECL reagent will be added to cells, and chemical luminescence signal will be counted using plate reader. Compounds efficacies (μM) were determined by the minimal compound concentration needed to increase pAMPK by 30%. Activity: “+” equals >10 μM; “++” equals between ≤10 μM and >1 μM; and “+++” equals ≤1 μM.
row,Compound,EC (30% increase) [µM]
1,Cc1ccccc1CN(CC(O)COc1ccc(C(F)(F)F)cc1)C(=O)c1nccs1 (stereo not drawn) [compound 84],≤ 1
2,[2H]C([2H])(c1cccnc1)N(CCCOc1ccc(C(F)(F)F)cc1)Cc1ccccc1C [compound 135],≤ 1
3,OC(COc1ncccn1)CN(Cc1ccccc1)Cc1ccccc1 (stereo not drawn) [compound 15],> 10
4,Cn1ccnc1C1Cc2ccccc2CN1CC(O)COc1ccc(C(F)(F)F)cc1 (stereo not drawn) [compound 149],1 to 10
5,O=C(c1cncs1)N(Cc1ccccc1Cl)CC(O)COc1ccc(C(F)(F)F)cc1 (stereo not drawn) [compound 90],≤ 1
6,Cc1ccccc1CN(CC(O)COc1ccc(C(F)(F)F)cc1)C(=O)c1cncn1C (stereo not drawn) [compound 81],≤ 1
7,OC(COc1cncnc1)CN(Cc1ccccc1)Cc1ccccc1 (stereo not drawn) [compound 16],1 to 10
8,CC(C)(COc1ccc(C(F)(F)F)cc1)CN(Cc1cccnc1)Cc1cccnc1 [compound 184],≤ 1
9,OC(COc1ccc(C(F)(F)F)cc1)CC1=Nc2ccccc2CC1c1cccnc1 (stereo not drawn) [compound 57],1 to 10
10,FC(F)(F)c1ccc(OCCCN2Cc3ccccc3C[C@@H]2c2cccnc2)cc1 [compound 150],1 to 10
11,OC(COc1ccc(C(F)(F)F)cc1)CN(Cc1cccnc1)Cc1cccnc1 (stereo not drawn) [compound 7],≤ 1
12,Cc1ccccc1CN(CC(O)COc1ccc(C(F)(F)F)cc1)C(=O)c1cn[nH]c1 (stereo not drawn) [compound 76],1 to 10
13,OC(COc1ccc(C(F)(F)F)cc1)CN(Cc1ccccn1)Cc1ccccn1 (stereo not drawn) [compound 42],≤ 1
14,Cc1ccccc1CN(CC(O)COc1ccc(C(F)(F)F)cc1)C(=O)c1cocn1 (stereo not drawn) [compound 78],≤ 1
15,Cc1ccccc1CN(Cc1cccnn1)CC(C)(C)COc1ccc(C(F)(F)F)cc1 [compound 181],≤ 1
16,Cc1ccccc1CN(Cc1nccn1C)CC(O)COc1ccc(C(F)(F)F)cc1 (stereo not drawn) [compound 72],≤ 1
17,FC(F)(F)c1ccc(OCCCN(Cc2cncs2)Cc2ccccc2Cl)cc1 [compound 104],≤ 1
18,OC(COc1ccc(C(F)(F)F)cc1)CN1CCc2ccccc2[C@H]1c1ccccc1 (stereo partly drawn) [compound 114],> 10
19,Cc1ccccc1CN(CC(C)(C)COc1ccc(C(F)(F)F)cc1)C(=O)c1cncn1C [compound 192],≤ 1
20,Cn1cncc1CN(Cc1ccccc1Cl)CC(O)COc1ccc(F)cc1F (stereo not drawn) [compound 147],> 10
21,OC(COc1cccnc1)CN(Cc1ccccc1)Cc1ccccc1 (stereo not drawn) [compound 9],> 10
22,c1ccc(CN(CCCOc2ccccc2)Cc2ccccc2)cc1 [compound 61],1 to 10
23,Cn1cncc1C(=O)N(CCCOc1cnc(C(F)(F)F)nc1)Cc1ccccc1Cl [compound 168],> 10
24,Cc1ccccc1CN(Cc1nccs1)CC(O)COc1ccc(C(F)(F)F)cc1 (stereo not drawn) [compound 70],≤ 1
25,[2H]C1(c2cccnc2)c2ccccc2CCN1CCCOc1ccc(C(F)(F)F)cc1 (stereo not drawn) [compound 101],≤ 1
26,Cc1ccccc1CN(Cc1ccccc1)CC(O)COc1ccc(C(F)(F)F)cc1 (stereo not drawn) [compound 5],1 to 10

row,Compound,EC (30% increase) [µM]
1,O[C@@H](COc1ccc(C(F)(F)F)cc1)CN1CCc2ccccc2[C@@H]1c1ccccc1 [compound 112],≤ 1
2,Cc1ccccc1CN(CCCOc1ccc(C(F)(F)F)cc1)Cc1nccn1C [compound 105],≤ 1
3,Cc1ccccc1CN(Cc1ccc[n+]([O-])c1)CC(O)COc1ccc(C(F)(F)F)cc1 (stereo not drawn) [compound 51],1 to 10
4,OC(COc1ccccn1)CN(Cc1ccccc1)Cc1ccccc1 (stereo not drawn) [compound 10],1 to 10
5,Fc1ccccc1CN(CCOc1ccc(C(F)(F)F)cc1)Cc1cncs1 [compound 173],≤ 1
6,Cn1cncc1C(=O)N(Cc1ccccc1C(F)(F)F)CC(O)COc1ccc(C(F)(F)F)cc1 (stereo not drawn) [compound 145],1 to 10
7,CC(c1cccnc1)N(Cc1ccccc1)CC(O)COc1ccc(C(F)(F)F)cc1 (stereo not drawn) [compound 46],≤ 1
8,Cc1ccccc1CN(CC(O)COc1ccc(C(F)(F)F)cc1)c1cccnc1 (stereo not drawn) [compound 55],1 to 10
9,Cc1ccncc1CN(Cc1cnccc1C)CC(O)COc1ccc(C(F)(F)F)cc1 (stereo not drawn) [compound 33],1 to 10
10,Cc1ccncc1CN(Cc1cccnc1C)CC(O)COc1ccc(C(F)(F)F)cc1 (stereo not drawn) [compound 32],≤ 1
11,OC(COc1ccc(C(F)(F)F)cc1)CN1CCc2ccccc2C1c1cncs1 (stereo not drawn) [compound 93],1 to 10
12,FC(F)(F)c1ccc(OCC2(CN(Cc3cccnc3)Cc3ccccc3Cl)CC2)cc1 [compound 142],≤ 1
13,OC(COc1ccc(C(F)(F)F)cc1)CN(CCc1ccccc1)Cc1ccccc1 (stereo not drawn) [compound 6],1 to 10
14,OC(COc1ccc(C(F)(F)F)cc1)CN(CC1CCCCC1)CC1CCCCC1 (stereo not drawn) [compound 3],1 to 10
15,Cc1ccccc1CN(CC(O)COc1ccc(C(F)(F)F)cc1)C(=O)c1c[nH]cn1 (stereo not drawn) [compound 74],1 to 10
16,Cc1ccccc1CN(Cc1ccc(C(F)(F)F)nc1)CC(O)COc1ccc(F)cc1 (stereo not drawn) [compound 44],≤ 1
17,O[C@@H](COc1ccc(C(F)(F)F)cc1)CN1Cc2ccccc2C[C@@H]1c1cccnc1 [compound 130],≤ 1
18,O=C(COc1ccc(C(F)(F)F)cc1)Cc1nc2ccccc2cc1-c1cccnc1 [compound 103],> 10
19,OC(COc1ccncc1)CN(Cc1ccccc1)Cc1ccccc1 (stereo not drawn) [compound 17],> 10
20,OC(COc1ccc(C(F)(F)F)cc1)CN1Cc2ccccc2C[C@H]1c1cccnc1 (stereo partly drawn) [compound 132],≤ 1
21,Cc1ncccc1CN(CC(O)COc1ccc(C(F)(F)F)cc1)C(=O)c1cncn1C (stereo not drawn) [compound 146],> 10
22,FC(F)(F)c1ccc(OCCN(Cc2cccnc2)Cc2ccccc2Cl)cc1 [compound 155],≤ 1
23,Cn1ccnc1C1c2ccccc2CCN1CCCOc1ccc(C(F)(F)F)cc1 (stereo not drawn) [compound 199],1 to 10
24,CC1(c2cccnc2)Cc2ccccc2CN1CC(O)COc1ccc(C(F)(F)F)cc1 (stereo not drawn) [compound 178],≤ 1
25,[2H]C(C)(c1cccnc1)N(Cc1ccccc1Cl)CC(O)COc1ccc(C(F)(F)F)cc1 (stereo not drawn) [compound 163],> 10
26,O[C@H](COc1ccc(C(F)(F)F)cc1)CN1Cc2ccccc2C[C@@H]1c1cccnc1 [compound 131],≤ 1

row,Compound,EC (30% increase) [µM]
1,O=C(CCOc1ccc(C(F)(F)F)cc1)N(Cc1ccccc1)Cc1ccccc1 [compound 35],1 to 10
2,CC(c1cccnc1)N(Cc1ccccc1Cl)CC(O)COc1ccc(C(F)(F)F)cc1 (stereo not drawn) [compound 138],> 10
3,FC(COc1ccc(C(F)(F)F)cc1)CN(Cc1cccnc1)Cc1ccccc1Cl (stereo not drawn) [compound 164],≤ 1
4,Cn1cncc1C(=O)N(Cc1c(Cl)cccc1Cl)CC(O)COc1ccc(C(F)(F)F)cc1 (stereo not drawn) [compound 144],1 to 10
5,Cc1ccccc1CN(CC(O)COc1ccc(C(F)(F)F)cc1)S(=O)(=O)c1cccnc1 (stereo not drawn) [compound 68],≤ 1
6,OC(COc1ccc(C(F)(F)F)cc1)CN1Cc2ccccc2CC1c1cccnc1 (stereo not drawn) [compound 56],≤ 1
7,FC(F)(F)c1ccc(OCCCN(Cc2cccnc2)Cc2ccccc2C(F)(F)F)cc1 [compound 174],≤ 1
8,Cc1ccncc1CN(Cc1ccccc1)CC(O)COc1ccc(C(F)(F)F)cc1 (stereo not drawn) [compound 27],≤ 1
9,OC(COc1ccc(C(F)(F)F)cc1)CN1Cc2ccccc2CC1c1cncs1 (stereo not drawn) [compound 98],1 to 10
10,Cc1ccccc1CN(CC(O)COc1ccc(C(F)(F)F)cc1)C(C)c1cccnc1 (stereo not drawn) [compound 118],> 10
11,Cc1ccccc1CN(CC(O)COc1ccc(C(F)(F)F)cc1)C(C)c1cncs1 (stereo not drawn) [compound 176],1 to 10
12,OC(COc1ccc(C(F)(F)F)cc1)CN1Cc2ccccc2CC1c1ccccc1 (stereo not drawn) [compound 20],1 to 10
13,[2H]C(C)(c1cccnc1)N(Cc1ccccc1C)CC(O)COc1ccc(C(F)(F)F)cc1 (stereo not drawn) [compound 177],> 10
14,Cc1ccccc1CN(Cc1cnn(C)c1)CC(O)COc1ccc(C(F)(F)F)cc1 (stereo not drawn) [compound 38],1 to 10
15,Cc1ccccc1CN(CCCOc1ccc(C(F)(F)F)cc1)Cc1ccnnc1 [compound 182],≤ 1
16,Cc1ccccc1CN(Cc1cncs1)CC(O)COc1ccc(C(F)(F)F)cc1 (stereo not drawn) [compound 40],≤ 1
17,Cn1cncc1C(=O)N(Cc1ccccc1Cl)CC(C)(C)COc1ccc(C(F)(F)F)cc1 [compound 194],≤ 1
18,FC(F)(F)c1ccc(OCCCN2Cc3ccccc3CC2c2cccnc2)cc1 (stereo not drawn) [compound 65],≤ 1
19,OC(COc1ccc(C(F)(F)F)cc1)CN1Cc2ccccc2C[C@@H]1c1cccnc1 (stereo partly drawn) [compound 129],≤ 1
20,O[C@H](COc1ccc(C(F)(F)F)cc1)CN1CCc2ccccc2[C@H]1c1ccccc1 [compound 115],1 to 10
21,Cc1ccccc1CN(Cc1cccnc1)CC(C)(C)COc1cnc(C(F)(F)F)nc1 [compound 190],1 to 10
22,Cn1cncc1C(=O)N(Cc1cccnc1)CC(C)(C)COc1ccc(C(F)(F)F)cc1 [compound 193],≤ 1
23,O[C@@H](COc1ccc(C(F)(F)F)cc1)CN1CCc2ccccc2[C@H]1c1ccccc1 [compound 116],> 10
24,Cc1ccccc1CN(CCCOc1ccc(C(F)(F)F)cc1)C(=O)c1ccccc1 [compound 110],≤ 1
25,Cc1ccccc1CN(CCOc1ccc(C(F)(F)F)cc1)Cc1cccnc1 [compound 154],≤ 1
26,OC(COc1ccc(C(F)(F)F)cc1)CN(Cc1cccnc1)Cc1ccccc1Cl (stereo not drawn) [compound 25],≤ 1
